Measurements published in patent publication US20230303570A1, “KINASE INHIBITORS AND USES THEREOF” (ABM Therapeutics Corporation, priority 2020, published 2023).

Experiments:
[1] = target: T1, Axl (Homo sapiens, UniProt P30530); assay: AXL kinase mobility shift assay; type: biochemical
T1 sequence (P30530 26-894): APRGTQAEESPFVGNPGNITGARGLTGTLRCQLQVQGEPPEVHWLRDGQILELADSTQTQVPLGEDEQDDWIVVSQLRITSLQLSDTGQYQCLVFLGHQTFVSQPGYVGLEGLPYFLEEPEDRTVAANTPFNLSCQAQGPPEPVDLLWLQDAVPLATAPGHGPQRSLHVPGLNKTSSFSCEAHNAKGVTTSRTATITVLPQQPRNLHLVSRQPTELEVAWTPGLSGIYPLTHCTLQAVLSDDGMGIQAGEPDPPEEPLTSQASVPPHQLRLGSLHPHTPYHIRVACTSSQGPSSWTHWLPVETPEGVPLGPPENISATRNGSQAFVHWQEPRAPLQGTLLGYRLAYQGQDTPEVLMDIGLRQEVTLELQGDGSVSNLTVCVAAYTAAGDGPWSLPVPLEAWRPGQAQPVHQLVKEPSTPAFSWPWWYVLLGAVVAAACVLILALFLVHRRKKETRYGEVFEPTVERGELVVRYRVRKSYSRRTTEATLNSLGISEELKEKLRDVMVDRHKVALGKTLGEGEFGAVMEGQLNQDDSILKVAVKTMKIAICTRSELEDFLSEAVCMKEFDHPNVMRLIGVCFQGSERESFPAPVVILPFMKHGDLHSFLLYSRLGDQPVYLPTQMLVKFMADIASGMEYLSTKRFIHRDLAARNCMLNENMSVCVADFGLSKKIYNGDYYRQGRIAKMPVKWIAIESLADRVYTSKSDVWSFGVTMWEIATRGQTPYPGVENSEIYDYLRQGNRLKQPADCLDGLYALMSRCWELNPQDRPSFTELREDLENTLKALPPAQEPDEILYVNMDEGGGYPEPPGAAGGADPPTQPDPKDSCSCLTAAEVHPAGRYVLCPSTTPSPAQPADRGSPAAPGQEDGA
Procedure: (§1) The effect of the compounds on the activity of cKit, RET and AXL kinases were assessed by Mobility shift assay. • 1. 1× kinase base buffer and stop buffer for testing kinases were prepared • 1-1) 1× Kinase base buffer (50 mM HEPES, pH 7.5, 0.01% Triton X-100) • 1-2) Stop buffer (100 mM HEPES, pH 7.5, 0.015% Brij-35, 0.2% Coating Reagent #3, 50 mM EDTA) • 2. Compound and assay plate preparation: the compound was diluted to 50× of the final desired highest inhibitor concentration in reaction by 100% DMSO. 100 μl of this compound dilution was transferred to a well in a 96-well plate. For example, if the highest desired concentration was 5 μM, then 250 μM of compound DMSO solution was prepared in this step. For all compounds, the compound was serially diluted by transferring 10 μl to 70 μl of 100 DMSO in the next well and so forth for a total of 5 concentrations. 100 μl of 100% DMSO was added to two empty wells for no compound control and no enzyme control in the same 96-well plate. The plate was labeled as source plate. The intermediate plate was prepared by transferring 10 μl of compound from source plate to a new 96-well plate as the intermediate plate, adding 90 μl of 1× kinase buffer to each well of the intermediate plate, mixing the compounds in intermediate plate for 10 min on shaker. 5 μl of each well from the 96-well intermediate plate were transferred to a 384-well plate in duplicates. For example, A1 of the 96-well plate was transferred to A1 and A2 of the 384-well plate. A2 of the 96-well plate was transferred to A3 and A4 of the 384-well plate, and so on. • 4. Kinase reaction: The assay plate already contained 5 μl of compound in 10% DMSO. A 2.5× enzyme solution was prepared by adding kinases (cKit, RET, or AXL) and DTT in 1× kinase base buffer. 2.5× enzyme solution was transferred to the assay plate (by adding 10 μl of 2.5× enzyme solution to each well of the 384-well assay plate). The plate was incubated at room temperature for 10 min. 2.5× peptide solution was prepared by adding FAM-labeled peptide, ATP, MgCl2 in the 1× kinase base buffer. 2.5× peptide solution was added to the assay plate by adding 10 μl of 2.5× peptide solution to each well of the 384-well assay plate. The plate was incubated at 28° C. for the specified period of time. 25 μl of stop buffer was added to stop reaction. Data was collected on Caliper.

[2] = target: HPK1 (MAP4K1) (Homo sapiens, UniProt Q92918); assay: HPK1 (MAP4K1) kinase Lantha screen assay; type: biochemical
Procedure, shortened: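 Recombinant MAP4K1 preincubated 10 min with compound (6-point dilution, duplicates) in 50 mM HEPES pH 7.5, 10 mM MgCl2, then reacted with Fluorescein-PKC substrate and ATP for 90 min at room temperature. Antibody detection solution stopped reaction; after 60 min, TR-FRET read at ex 340 nm, em 520/495 nm.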

[3] = target: c-Kit (Homo sapiens, UniProt P10721); assay: cKit kinase mobility shift assay; type: biochemical
Procedure: as §1

[4] = Mouse pharmacokinetics study (intravenous and oral); type: in vivo; conditions: CD-1 mice
Excerpt: The test articles were formulated in […] Hydroxypropyl-beta-cyclodextrin, either as a clear solution or fine suspension.

[5] = target: PAK1 (Homo sapiens, UniProt Q13153); assay: In vitro kinase assay, PAK1 (Caliper EZ Reader conversion); type: biochemical; parameters: purchased Carna Biosciences
Procedure, shortened: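 Human PAK1 was preincubated with compound (6 concentrations, 4-fold dilutions) for 10 min at room temperature, then reacted with substrate mix for 30 and 60 min. Substrate conversion was read by Caliper mobility shift. IC50 was fitted by variable-slope log(inhibitor)–response, normalised to FRAX597 and buffer controls.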

Sequence of c-Kit (P10721 26-976): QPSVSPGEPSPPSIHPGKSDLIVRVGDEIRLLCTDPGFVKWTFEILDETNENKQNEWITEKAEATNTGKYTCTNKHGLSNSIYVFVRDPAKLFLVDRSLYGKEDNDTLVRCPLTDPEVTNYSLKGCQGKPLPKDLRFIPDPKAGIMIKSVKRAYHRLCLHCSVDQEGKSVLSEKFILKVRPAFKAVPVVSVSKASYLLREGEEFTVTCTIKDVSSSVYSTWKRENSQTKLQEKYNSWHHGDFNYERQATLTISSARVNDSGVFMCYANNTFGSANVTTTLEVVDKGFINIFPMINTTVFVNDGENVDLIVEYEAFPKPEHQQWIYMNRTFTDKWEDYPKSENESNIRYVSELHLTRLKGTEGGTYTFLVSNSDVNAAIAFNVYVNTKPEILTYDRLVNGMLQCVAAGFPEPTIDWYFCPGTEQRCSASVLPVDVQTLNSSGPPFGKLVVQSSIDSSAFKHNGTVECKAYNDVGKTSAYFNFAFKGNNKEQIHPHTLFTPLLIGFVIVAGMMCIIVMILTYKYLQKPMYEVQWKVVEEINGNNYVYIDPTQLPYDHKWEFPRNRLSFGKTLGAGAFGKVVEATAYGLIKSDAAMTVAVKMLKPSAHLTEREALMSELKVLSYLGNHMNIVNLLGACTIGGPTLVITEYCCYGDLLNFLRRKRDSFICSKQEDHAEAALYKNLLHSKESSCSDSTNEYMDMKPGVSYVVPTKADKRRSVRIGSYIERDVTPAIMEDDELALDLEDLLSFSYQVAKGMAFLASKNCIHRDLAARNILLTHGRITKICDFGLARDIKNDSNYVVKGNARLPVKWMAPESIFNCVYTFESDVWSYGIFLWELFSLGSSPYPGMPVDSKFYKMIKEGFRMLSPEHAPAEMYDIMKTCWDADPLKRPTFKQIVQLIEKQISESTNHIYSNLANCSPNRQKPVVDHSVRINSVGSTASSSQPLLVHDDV
Sequence of HPK1 (MAP4K1) (Q92918 whole entry, species assumed): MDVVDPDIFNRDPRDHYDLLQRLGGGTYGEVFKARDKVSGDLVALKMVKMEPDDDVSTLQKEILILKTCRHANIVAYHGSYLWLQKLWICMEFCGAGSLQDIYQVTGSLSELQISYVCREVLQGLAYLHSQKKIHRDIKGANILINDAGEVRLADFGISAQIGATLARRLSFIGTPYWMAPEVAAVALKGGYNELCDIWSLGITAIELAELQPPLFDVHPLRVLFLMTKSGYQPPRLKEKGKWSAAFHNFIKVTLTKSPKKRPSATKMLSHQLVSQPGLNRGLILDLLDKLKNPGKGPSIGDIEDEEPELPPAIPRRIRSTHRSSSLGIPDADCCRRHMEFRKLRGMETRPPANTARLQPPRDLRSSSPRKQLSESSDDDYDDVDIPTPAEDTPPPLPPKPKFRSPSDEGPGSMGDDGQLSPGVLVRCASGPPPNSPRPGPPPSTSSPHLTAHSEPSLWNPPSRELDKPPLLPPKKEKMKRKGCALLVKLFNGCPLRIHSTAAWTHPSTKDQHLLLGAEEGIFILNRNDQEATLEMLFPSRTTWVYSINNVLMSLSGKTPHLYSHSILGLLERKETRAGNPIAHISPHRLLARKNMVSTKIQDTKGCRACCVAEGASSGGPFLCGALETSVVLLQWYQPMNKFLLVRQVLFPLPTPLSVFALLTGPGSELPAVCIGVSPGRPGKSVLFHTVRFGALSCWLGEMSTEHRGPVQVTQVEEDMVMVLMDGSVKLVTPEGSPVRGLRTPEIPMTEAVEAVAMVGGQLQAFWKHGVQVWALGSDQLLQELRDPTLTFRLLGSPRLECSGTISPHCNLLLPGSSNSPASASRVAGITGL
Sequence of PAK1 (Q13153 whole entry): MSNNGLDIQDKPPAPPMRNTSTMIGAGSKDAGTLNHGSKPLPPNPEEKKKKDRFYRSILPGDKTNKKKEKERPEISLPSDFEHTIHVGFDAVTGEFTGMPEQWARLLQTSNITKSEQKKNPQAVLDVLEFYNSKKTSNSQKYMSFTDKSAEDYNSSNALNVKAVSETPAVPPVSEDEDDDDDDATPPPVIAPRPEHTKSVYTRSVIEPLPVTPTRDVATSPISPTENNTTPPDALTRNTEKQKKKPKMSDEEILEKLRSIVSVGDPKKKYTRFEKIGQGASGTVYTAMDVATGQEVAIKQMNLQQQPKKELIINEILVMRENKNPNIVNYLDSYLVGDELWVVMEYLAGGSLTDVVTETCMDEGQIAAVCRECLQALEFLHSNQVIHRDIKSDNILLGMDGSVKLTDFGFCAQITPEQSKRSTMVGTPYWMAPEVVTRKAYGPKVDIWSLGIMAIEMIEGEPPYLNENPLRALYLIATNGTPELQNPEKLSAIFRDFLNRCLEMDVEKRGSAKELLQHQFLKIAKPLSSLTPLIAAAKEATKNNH

SMILES	IC50 [1]	IC50 [2]	IC50 [3]	other results
Cc1ccc(Nc2ncc3c(n2)N2CCN=C2C(c2cc(NC(=O)c4cn(C(C)C)c(=O)n(-c5ccc(F)cc5)c4=O)ccc2C)=C3)cn1 [Compound 266, 3-(4-fluorophenyl)-1-isopropyl-N-(4-methyl-3-(2-((6-methylpyridin-3-yl)amino)-8,9-dihydroimidazo[1′,2′:1,6]pyrido[2,3-d]pyrimidin-6-yl)phenyl)-2,4-dioxo-1,2,3,4-tetrahydropyrimidine-5-carboxamide]	> 10000 nM	–	–	–
CNc1ncc2c(n1)N1CCN=C1C(c1c(C)ccc(NS(=O)(=O)c3c(Cl)cccc3Cl)c1F)=C2 [Compound 296, 2,6-dichloro-N-(2-fluoro-4-methyl-3-(2-(methylamino)-8,9-dihydroimidazo[1′,2′:1,6]pyrido[2,3-d]pyrimidin-6-yl)phenyl)benzenesulfonamide]	> 10000 nM	–	–	–
CNc1ncc2c(n1)N1CCN=C1C(c1c(C)ccc(NS(=O)(=O)c3ccccc3OC(F)(F)F)c1F)=C2 [Compound 299, N-(2-fluoro-4-methyl-3-(2-(methylamino)-8,9-dihydroimidazo[1′,2′:1,6]pyrido[2,3-d]pyrimidin-6-yl)phenyl)-2-(trifluoromethoxy)benzenesulfonamide]	> 10000 nM	–	–	–
CNc1ncc2c(n1)N1CCN=C1C(c1cc(NC(=O)NCCC(F)(F)F)c(F)cc1C)=C2 [Compound 316, 1-(2-fluoro-4-methyl-5-(2-(methylamino)-8,9-dihydroimidazo[1′,2′:1,6]pyrido[2,3-d]pyrimidin-6-yl)phenyl)-3-(3,3,3-trifluoropropyl)urea]	–	> 10000 nM	100 to 10000 nM	–
Cc1ccc(NC(=O)c2cc(C(F)(F)F)ccn2)cc1C1=Cc2cnc(Nc3cnn(C)c3)nc2N2CCN=C12 [Compound 195, N-(4-methyl-3-(2-((1-methyl-1H-pyrazol-4-yl)amino)-8,9-dihydroimidazo[1′,2′:1,6]pyrido[2,3-d]pyrimidin-6-yl)phenyl)-4-(trifluoromethyl)picolinamide]	–	< 100 nM	< 100 nM	–
CNc1ncc2c(n1)N1CCN=C1C(c1c(C)ccc(NS(=O)(=O)c3ccccc3C(F)(F)F)c1F)=C2 [Compound 298, N-(2-fluoro-4-methyl-3-(2-(methylamino)-8,9-dihydroimidazo[1′,2′:1,6]pyrido[2,3-d]pyrimidin-6-yl)phenyl)-2-(trifluoromethyl)benzenesulfonamide]	> 10000 nM	–	–	–
CNc1ncc2c(n1)N1CCN=C1C(c1ccc(C(=O)Nc3cc(C(F)(F)F)ccn3)c(F)c1)=C2 [Compound 270, 2-fluoro-4-(2-(methylamino)-8,9-dihydroimidazo[1′,2′:1,6]pyrido[2,3-d]pyrimidin-6-yl)-N-(4-(trifluoromethyl)pyridin-2-yl)benzamide]	> 10000 nM	–	–	–
CNc1ncc2c(n1)N1CCN=C1C(c1cc(NS(=O)(=O)c3ccccc3Cl)c(F)cc1C)=C2 [Compound 286, 2-chloro-N-(2-fluoro-4-methyl-5-(2-(methylamino)-8,9-dihydroimidazo[1′,2′:1,6]pyrido[2,3-d]pyrimidin-6-yl)phenyl)benzenesulfonamide]	> 10000 nM	–	–	–
Cc1ccc(NC(=O)c2cc(C(C)(C)F)ccn2)cc1C1=Cc2cnc(Nc3cnn(C)c3)nc2N2CCN=C12 [Compound 196, 4-(2-fluoropropan-2-yl)-N-(4-methyl-3-(2-((1-methyl-1H-pyrazol-4-yl)amino)-8,9-dihydroimidazo[1′,2′:1,6]pyrido[2,3-d]pyrimidin-6-yl)phenyl)picolinamide]	–	–	< 100 nM	AUC ([4]; mouse, plasma, PO 25 mg/kg): 11300 ± 3010 ng·h/mL; Cmax ([4]; mouse, plasma, PO 25 mg/kg): 1060 ± 108 ng/mL; Tmax ([4]; mouse, plasma, PO 25 mg/kg): 1.33 ± 0.58 h
Cc1cc(F)c(NC(=O)c2cc(C(F)(F)F)ccn2)cc1C1=Cc2cnc(NC3COC3)nc2N2CCN=C12 [Compound 178, N-(2-fluoro-4-methyl-5-(2-(oxetan-3-ylamino)-8,9-dihydroimidazo[1′,2′:1,6]pyrido[2,3-d]pyrimidin-6-yl)phenyl)-4-(trifluoromethyl)picolinamide]	–	< 100 nM	100 to 10000 nM	F ([4]; PO 25 mg/kg): 66.7 ± 14.3%; Vd ([4]; mouse, plasma, IV 5 mg/kg): 4.06 ± 0.37 L/kg; half-life ([4]; mouse, plasma, IV 5 mg/kg): 2.76 ± 0.22 h; clearance ([4]; mouse, plasma, IV 5 mg/kg, read-out: Clp): 17 ± 0.3 mL/min/kg; AUC ([4]; mouse, plasma, PO 25 mg/kg): 16300 ± 3490 ng·h/mL; Cmax ([4]; mouse, plasma, PO 25 mg/kg): 2560 ± 505 ng/mL; Tmax ([4]; mouse, plasma, PO 25 mg/kg): 2 h
Cc1ccc(NC(=O)c2cc(C(F)(F)F)ccn2)cc1C1=Cc2cnc(Nc3cccc(CO)c3)nc2N2CCN=C12 [Compound 229, N-(3-(2-((3-(hydroxymethyl)phenyl)amino)-8,9-dihydroimidazo[1′,2′:1,6]pyrido[2,3-d]pyrimidin-6-yl)-4-methylphenyl)-4-(trifluoromethyl)picolinamide]	–	< 100 nM	< 100 nM	–
CNc1ncc2c(n1)N1CCN=C1C(c1cc(NC(=O)Nc3ccccc3Cl)c(F)cc1C)=C2 [Compound 331, 1-(2-chlorophenyl)-3-(2-fluoro-4-methyl-5-(2-(methylamino)-8,9-dihydroimidazo[1′,2′:1,6]pyrido[2,3-d]pyrimidin-6-yl)phenyl)urea]	–	100 to 10000 nM	< 100 nM	–
CN1CCN(c2ccc(Nc3ncc4c(n3)N3CCN=C3C(c3ccccc3Cl)=C4)cn2)CC1 [Compound 92, 6-(2-chlorophenyl)-N-(6-(4-methylpiperazin-1-yl)pyridin-3-yl)-8,9-dihydroimidazo[1′,2′:1,6]pyrido[2,3-d]pyrimidin-2-amine]	–	–	100 to 10000 nM	IC50 [5]: 100 to 10000 nM
CNc1ncc2c(n1)N1CCN=C1C(c1cc(NC(=O)NCCC(C)(C)C)c(F)cc1C)=C2 [Compound 317, 1-(3,3-dimethylbutyl)-3-(2-fluoro-4-methyl-5-(2-(methylamino)-8,9-dihydroimidazo[1′,2′:1,6]pyrido[2,3-d]pyrimidin-6-yl)phenyl)urea]	–	100 to 10000 nM	< 100 nM	–
Cn1cc(Nc2ncc3c(n2)N2CCN=C2C(c2ccc(Cl)cc2Cl)=C3)cn1 [Compound 102, 6-(2,4-dichlorophenyl)-N-(1-methyl-1H-pyrazol-4-yl)-8,9-dihydroimidazo[1′,2′:1,6]pyrido[2,3-d]pyrimidin-2-amine]	–	–	< 100 nM	–
CNc1ncc2c(n1)N1CCN=C1C(c1c(C)ccc(NC(=O)c3cc(C(F)(F)F)ccn3)c1F)=C2 [Compound 140, N-(2-fluoro-4-methyl-3-(2-(methylamino)-8,9-dihydroimidazo[1′,2′:1,6]pyrido[2,3-d]pyrimidin-6-yl)phenyl)-4-(trifluoromethyl)picolinamide]	–	–	100 to 10000 nM	–
